The target of data set [1] is Potassium voltage-gated channel subfamily A member 5 (Homo sapiens, UniProt P22460). The data set is described as follows: Inhibition of human Kv1.5 channel expressed in mouse L929 cells. It is filed as cell-based. Conditions: for inhibition: concentration not given here.
Data set [2] concerns Oryctolagus cuniculus. The experiment in a line: Plasma concentration in rabbit at 10 mg/kg, iv. It is filed as ADME, organism-based. Conditions: in vivo. Further details: dose 10 mg/kg, route intravenous.
A short description of data set [3]: Volume of distribution at steady state in dog at 10 µmol/kg, intra-arterial infusion. Conditions: in vivo, read-out: Vdss.
In data set [4] the test system is Oryctolagus cuniculus. The data set is described as follows: Prolongation of atrial effective refractory period in rabbit at 0.3 mg/kg, iv relative to vehicle control. It is filed as functional, Cardiac atrium.
Data set [5] has as its system Oryctolagus cuniculus. The experiment in a line: Prolongation of atrial effective refractory period in rabbit at 1 mg/kg, iv relative to vehicle control. It is filed as functional, Cardiac atrium.
Data set [6] is described as follows: Terminal half life in dog at 10 µmol/kg, intra-arterial infusion. Conditions: in vivo, read-out: beta t1/2 (converted).
Data set [7] is described as follows: Fraction unbound in rabbit plasma at 10 mg/kg, iv. It is filed as ADME, organism-based, Oryctolagus cuniculus. Further details: dose 10 mg/kg, route intravenous.
Data set [8] is described as follows: Oral bioavailability in rat at 20 µmol/kg, po. Conditions: in vivo.
Data set [9] is described as follows: Terminal half life in rat at 10 µmol/kg, intra-arterial infusion. Conditions: in vivo, read-out: beta t1/2 (converted).
Data set [10] can be described thus: Oral bioavailability in dog at 20 µmol/kg, po. Conditions: in vivo.
Data set [11] relates to Oryctolagus cuniculus. The data set is described as follows: Prolongation of atrial effective refractory period in rabbit at 3 mg/kg, iv relative to vehicle control. It is filed as functional, Cardiac atrium.
The nature of data set [12]: Clearance in rat at 10 µmol/kg, intra-arterial infusion. Conditions: in vivo.
The nature of data set [13]: Clearance in dog at 10 µmol/kg, intra-arterial infusion. Conditions: in vivo.
Data set [14] deals with Oryctolagus cuniculus. The data set is described as follows: Prolongation of atrial effective refractory period in rabbit at 10 mg/kg, iv relative to vehicle control. It is filed as functional, Cardiac atrium.
The nature of data set [15]: Volume of distribution at steady state in rat at 10 µmol/kg, intra-arterial infusion. Conditions: in vivo, read-out: Vdss.

SMILES strings stand for the structures.

Sequence of Potassium voltage-gated channel subfamily A member 5 (P22460 whole entry): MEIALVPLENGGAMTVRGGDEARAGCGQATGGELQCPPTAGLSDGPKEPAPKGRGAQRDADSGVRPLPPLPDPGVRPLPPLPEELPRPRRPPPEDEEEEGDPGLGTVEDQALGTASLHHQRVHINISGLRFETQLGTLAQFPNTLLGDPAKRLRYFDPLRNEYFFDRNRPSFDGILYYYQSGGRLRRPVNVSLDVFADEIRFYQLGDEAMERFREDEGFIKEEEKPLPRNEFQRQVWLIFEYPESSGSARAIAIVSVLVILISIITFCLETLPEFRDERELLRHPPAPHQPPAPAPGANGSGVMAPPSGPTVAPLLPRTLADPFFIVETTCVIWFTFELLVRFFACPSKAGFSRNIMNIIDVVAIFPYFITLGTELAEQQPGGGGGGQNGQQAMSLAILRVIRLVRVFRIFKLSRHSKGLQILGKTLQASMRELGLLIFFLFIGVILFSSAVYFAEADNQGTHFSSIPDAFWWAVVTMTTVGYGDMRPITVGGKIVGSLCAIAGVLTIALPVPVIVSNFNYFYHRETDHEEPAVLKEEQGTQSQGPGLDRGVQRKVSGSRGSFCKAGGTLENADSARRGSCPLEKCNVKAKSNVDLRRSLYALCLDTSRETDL

By IC50 is commonly meant the concentration that gives 50% inhibition. For orientation: inhibition means the relative decrease from the control value, in per cent. On to `COC[C@H]1CCCN1C(=O)C1=C(C)Nc2ccnn2C1c1ccc(Cl)c(Cl)c1` (some centres undefined), for which, in data set [1], the IC50 was greater than 1000 nM and the inhibition came out at 32%.

Compound `CC1=C(C(=O)N2CCC[C@H]2c2nnn(C)n2)C(c2ccc(Cl)c(Cl)c2)n2nccc2N1` (some centres undefined) showed an IC50 in data set [1] of 480 nM.

In data set [1], `CC1=C(C(=O)N2CCCC2c2ccncc2)C(c2ccc(Cl)c(Cl)c2)n2nccc2N1` (centres undefined) returned an IC50 of 310 nM.

In the case of `CC1=C(C(=O)N2CCCC2c2cccnc2)C(c2ccc(Cl)c(Cl)c2)n2nccc2N1` (centres undefined), in [1], the IC50 is greater than 1000 nM and the inhibition is 35%.

`CC1=C(C(=O)N2CCCC2c2ccccn2)C(c2ccc(Cl)c(Cl)c2)n2nccc2N1` (centres undefined) gave an IC50 in data set [1] of 660 nM.

Compound `CC1=C(C(=O)N2CCC(c3ccc(F)cc3)C2)C(c2ccc(Cl)c(Cl)c2)n2nccc2N1` (centres undefined) registered an IC50 in [1] of 160 nM.

In data set [1], `CC1=C(C(=O)N2CCC[C@H]2c2nnc(N)s2)C(c2ccc(Cl)c(Cl)c2)n2nccc2N1` (some centres undefined) had an IC50 greater than 1000 nM and an inhibition of 4%.

In the case of `COC(=O)[C@@H]1CCCN1C(=O)C1=C(C)Nc2ccnn2C1c1ccc(Cl)c(Cl)c1` (some centres undefined), the IC50 in data set [1] was 150 nM.

As to `CC1=C(C(=O)N2CCC[C@H]2c2n[nH]c(=O)n2C)C(c2ccc(Cl)c(Cl)c2)n2nccc2N1` (some centres undefined), in data set [1], the IC50 is greater than 1000 nM and the inhibition was 11%.

On to `CC1=C(C(=O)N2CCCC2c2ccccc2)C(c2ccc(Cl)c(Cl)c2)n2nccc2N1` (centres undefined), for which it took 150 nM to reach half-maximal inhibition in data set [1] (IC50).

As to `CC1=C(C(=O)N2CCC[C@H]2c2nc(C)c(C)s2)C(c2ccc(Cl)c(Cl)c2)n2nccc2N1` (some centres undefined), the IC50 in data set [1] amounted to 300 nM.

Consider `CC1=C(C(=O)N2CCCC2c2ccc(F)cc2)C(c2ccc(Cl)c(Cl)c2)n2nccc2N1` (mixture of isomers; 7), for which half-maximal inhibition in data set [1] (IC50) required 70 nM.

In the case of `CC1=C(C(=O)N2CCCC2c2ccc(F)cc2)C(c2ccc(Cl)c(Cl)c2)n2nccc2N1` (mixture of isomers; 7a), the midpoint of inhibition in data set [1], the IC50, lay at 2100 nM.

The compound `CC1=C(C(=O)N2CCCC2c2ccc(F)cc2)C(c2ccc(Cl)c(Cl)c2)n2nccc2N1` (mixture of isomers; 7b) came in with an IC50 in [1] of 1800 nM.

`CC1=C(C(=O)N2CCCC2c2ccc(F)cc2)C(c2ccc(Cl)c(Cl)c2)n2nccc2N1` (mixture of isomers; 7c) gave an IC50 in data set [1] of 150 nM.

In the case of `CC1=C(C(=O)N2CCC[C@H]2c2nc(C)no2)C(c2ccc(Cl)c(Cl)c2)n2nccc2N1` (stereo in doubt; 13a) [listing 1 of 2 here], the IC50 in data set [1] is greater than 1000 nM.

`CC1=C(C(=O)N2CCC[C@H]2c2nc(C)no2)C(c2ccc(Cl)c(Cl)c2)n2nccc2N1` (stereo in doubt; 13a) [listing 2 of 2 here] displayed an inhibition in [1] of 22%.

Consider `CC1=C(C(=O)N2CCC[C@H]2c2nc(C)no2)C(c2ccc(Cl)c(Cl)c2)n2nccc2N1` (stereo in doubt; 13b), for which the IC50 in data set [1] was determined as 160 nM.

In [1], `CC1=C(C(=O)N2CCC[C@H]2c2nnn[nH]2)C(c2ccc(Cl)c(Cl)c2)n2nccc2N1` (stereo in doubt; 14a) [listing 1 of 2 here] showed a half-inhibitory concentration (IC50) greater than 1000 nM.

`CC1=C(C(=O)N2CCC[C@H]2c2nnn[nH]2)C(c2ccc(Cl)c(Cl)c2)n2nccc2N1` (stereo in doubt; 14a) [listing 2 of 2 here]: the inhibition in data set [1] amounted to 4%.

As to `CC1=C(C(=O)N2CCC[C@H]2c2nnn[nH]2)C(c2ccc(Cl)c(Cl)c2)n2nccc2N1` (stereo in doubt; 14b), the inhibition in data set [1] came out at 8%.

In data set [1], `CC1=C(C(=O)N2CCC[C@H]2c2nnc[nH]2)C(c2ccc(Cl)c(Cl)c2)n2nccc2N1` (stereo in doubt; 17a) [listing 1 of 2 here] displayed a half-maximal inhibitory concentration (IC50) greater than 1000 nM.

`CC1=C(C(=O)N2CCC[C@H]2c2nnc[nH]2)C(c2ccc(Cl)c(Cl)c2)n2nccc2N1` (stereo in doubt; 17a) [listing 2 of 2 here]: the inhibition in data set [1] turned out to be 19%.

Turning to `CC1=C(C(=O)N2CCC[C@H]2c2nnc[nH]2)C(c2ccc(Cl)c(Cl)c2)n2nccc2N1` (stereo in doubt; 17b), in data set [1], the inhibition worked out at 3%.

`CC1=C(C(=O)N2CCC[C@H]2c2cc(C)no2)C(c2ccc(Cl)c(Cl)c2)n2nccc2N1` (stereo in doubt; 20a) [listing 1 of 2 here] yielded an IC50 in [1] greater than 1000 nM.

In data set [1], `CC1=C(C(=O)N2CCC[C@H]2c2cc(C)no2)C(c2ccc(Cl)c(Cl)c2)n2nccc2N1` (stereo in doubt; 20a) [listing 2 of 2 here] displayed an inhibition of 21%.

In data set [1], `CC1=C(C(=O)N2CCC[C@H]2c2cc(C)no2)C(c2ccc(Cl)c(Cl)c2)n2nccc2N1` (stereo in doubt; 20b) yielded an IC50 of 110 nM.

`CC1=C(C(=O)N2CCC[C@H]2c2cc(C)on2)C(c2ccc(Cl)c(Cl)c2)n2nccc2N1` (stereo in doubt; 21a) [listing 1 of 2 here] yielded an IC50 in data set [1] greater than 1000 nM.

Regarding `CC1=C(C(=O)N2CCC[C@H]2c2cc(C)on2)C(c2ccc(Cl)c(Cl)c2)n2nccc2N1` (stereo in doubt; 21a) [listing 2 of 2 here], in data set [1], the inhibition was 38%.

Turning to `CC1=C(C(=O)N2CCC[C@H]2c2cc(C)on2)C(c2ccc(Cl)c(Cl)c2)n2nccc2N1` (stereo in doubt; 21b), half-maximal inhibition in [1] (IC50) was put at 90 nM.

In general, fraction unbound refers to free concentration divided by total concentration. For orientation: bioavailability means the share of a dose that reaches the circulation, judged against a reference dose that is usually intravenous. As a reminder, the clearance is the volume of plasma or blood freed of the substance per unit of time. Consider `CC1=C(C(=O)N2CCC[C@H]2c2ccc(F)cc2)[C@@H](c2ccc(Cl)c(Cl)c2)n2nccc2N1` [BMS-394136], for which, in the data set on Oryctolagus cuniculus [2], the concentration came out at 7 µM. For the same compound, the figures for the Vd in data set [3] and in data set [15] were 2.1 L/kg and 1.6 L/kg, respectively. Also, the Activity in the data set with Oryctolagus cuniculus [4] was found to be 0.13%; in the data set on Oryctolagus cuniculus [5], 0.37%; in the data set on Oryctolagus cuniculus [11] it was 1.37%; in the data set on Oryctolagus cuniculus [14], 6.95%. For the same compound, the half-life in data set [6] was 1.5 h; in data set [9], 0.57 h. The compound further came in with a fraction unbound in data set [7] of 0.03. For the same compound, the bioavailability in [8] worked out at 51%; in data set [10], 37%. Moreover, the clearance amounted to 35 mL/min/kg in data set [12] and 42 mL/min/kg in data set [13]. In [1], this compound gave an IC50 of 50 nM.

The values are drawn from ChEMBL document CHEMBL1156891, “Pyrrolidine amides of pyrazolodihydropyrimidines as potent and selective KV1.5 blockers” (Bioorg Med Chem Lett, 2010).
